Paper PMC7018972, “Novel and selective inactivators of Triosephosphate isomerase with anti-trematode activity” (Scientific Reports, 2020)

Tests used:
rabbit TIM = target: T1, rabbit TIM (Oryctolagus cuniculus, UniProt P00939); assay: Selectivity assay, inhibition of rabbit TIM; type: biochemical; conditions: read-out: inhibition against rabbit TIM
T1 construct: made in house; host or cells: Escherichia coli
Protocol: (§1) Expression and purification of proteins: FhTIM, RabbitTIM and HsTIM were expressed in Escherichia coli and purified as described in the literature[31],[37]. After purification, the enzyme, dissolved in 100 mM triethanolamine, 10 mM EDTA and 1 mM dithiothreitol (pH 8), was precipitated with ammonium sulfate (75% saturation) and stored at 4 °C. Before use, extensive dialysis against 100 mM triethanolamine/10 mM EDTA (pH 7.4) was performed. Protein concentration was determined by absorbance at 280 nm for FhTIM (ε = 33,460 M^−1cm^−1) and for RabbitTIM and HsTIM (ε = 33,460 M^−1cm^−1). Enzymatic activity was determined following the conversion of glyceraldehydes-3-phosphate into dihydroxyacetone phosphate in a coupled enzyme assay. The decrease in absorbance at 340 nm was followed in a multiplate reader VarioskanTM Flash Multimode Reader (Thermo ScientificTM, Waltham, MA, USA) at 38 °C. The reaction mixture (1 mL, pH 7.4) contained 100 mM triethanolamine, 10 mM EDTA, 0.2 mM NADH, 1 mM glyceraldehydes-3-phosphate and 0.9 units of α-glycerol phosphate dehydrogenase. The reaction was initiated by the addition of 5 ng/mL of the TIM of interest. For the inhibition studies, TIM was incubated at a concentration of 5 mg/mL in a buffer containing 100 mM triethanolamine, 10 mM EDTA, pH 7.4 and 10% of DMSO at 37 °C for 1 h. The mixture also contained the compounds, dissolved in DMSO, at the indicated concentrations. After 1 h, 10 µL were withdrawn and added to a final volume of 100 µL of the reaction mixture for the activity assay. The inhibition assay was performed in a 96-well microplate. None of the molecules tested here affected the activity of α-glycerol phosphate dehydrogenase, the enzyme used in the coupled assay. The IC50 value was taken as the concentration of drug needed to reduce the enzymatic activity to 50% by analysis using OriginLab8.5® sigmoidal regression (% of enzymatic activity vs. the logarithm of the compound concentration). The experiments were performed in triplicate in two independent experiments.

[1] = system: murine macrophages and bovine sperm; assay: Non-specific toxicity against mammalian cells; type: cell-based; conditions: for Toxicity mammalian cells: selectivity index parasite vs. mammalian cells, fixed doses 25 and 100 µM
Protocol: As a proof of concept, we tested the best FhTIM inactivators against F. hepatica and S. mansoni parasites. Also, we use compound 191 as a non-inhibitor which has a closely related structure to that of compound 187. Some compounds were able to kill 100% of the newly excysted juvenile (NEJ) F. hepatica within 4 to 48 h (Table 2 and Fig. 2). […] In parallel, these compounds were assayed to characterize their non-specific toxicity against murine macrophages and bovine sperm. Both models are recommended by FDA as an in vitro prediction of toxicology.
J774.1 murine macrophage cells (ATCC, USA) were grown in DMEM culture milieu containing 4 mM glutamine and supplemented with 10% FCS[20]. The cells were seeded in a 96-well plate (5×10^4 cells in 200 µL culture medium) and incubated at 37 °C in a 5% CO2 atmosphere for 48 h, to allow cell adhesion prior to drug testing. Afterward, cells were exposed for 48 h to the compounds (25–400 µM) or the vehicle for control (0.4% DMSO), and additional controls (cells in medium) were used in each test. Cell viability was then assessed by measuring the mitochondria-dependent reduction of MTT (3-(4,5-dimethylthiazol-2-yl)-2,5-diphenyltetrazolium bromide) to formazan. For this purpose, MTT in sterile PBS (0.2% glucose), pH 7.4, was added to the macrophages to achieve a final concentration of 0.1 mg/mL, and the cells were incubated at 37 °C for 3 h. After removing the medium, formazan crystals were dissolved in 180 µL of DMSO and 20 µL of MTT buffer (0.1 M glycine, 0.1 M NaCl, 0.5 mM EDTA, pH 10.5), and the absorbance at 560 nm was measured. The IC50 was defined as the drug concentration at which 50% of the cells were viable, relative to the control (no drug added), and was determined by analysis using OriginLab8.5® sigmoidal regression (% of viable cells vs. the logarithm of the compound concentration). Tests were performed in triplicate.
Semen samples were obtained from a healthy fertile Hereford bull and kept frozen in 0.5 mL straws (extended in Andromed, Minitube, Germany[47]) under liquid nitrogen until use. The semen used belonged to a single freezing batch that was obtained during a regular collection schedule with an artificial vagina. Samples from three straws were thawed and a sperm pool was prepared in PBS at a concentration of 40 million spermatozoa per mL, then 50 μL of this sperm suspension was carefully mixed with 50 μL of compounds diluted to 100, 50, 25, 12.5 and 6.25 μM or with 1% DMSO in control experiments. Each condition was assayed by duplicate in 96-well plates and controls were assayed by triplicate. Plates were incubated at 37 °C for 1 h with moderate shaking. The motility analysis was carried out using a CASA (Computer Assisted Semen Analyzer) system Androvision (Minitube, Tiefenbach, Germany) with an Olympus BX 41 microscope (Olympus, Japan) equipped with a warm-stage at 37 °C. Each sample (10 μL) was placed onto a Makler Counting Chamber (depth 10 μm, Sefi-Medical Instruments, Israel) and the following parameters were evaluated: percentage of total motile spermatozoa (motility >5 μm/s) and velocity curved line (VCL, >24 μm/s). At least 400 spermatozoa were analyzed from each sample from at least four microscope fields.

human (HsTIM) = target: T2, human (HsTIM) (Homo sapiens, UniProt P60174); assay: Selectivity assay, inhibition of HsTIM; type: biochemical; conditions: read-out: inhibition against HsTIM
T2 construct: made in house; host or cells: Escherichia coli
Protocol: as §1

[2] = system: F. hepatica infected mice; assay: Mouse infection with F. hepatica; type: in vivo, BALB/c mice; conditions: for protection of mice from F. hepatica infection (clinical signs, Clinic Score): one dose 100 mg/kg orogastric, 1 week post-infection, read at 3 wpi; for transaminase profile at the end of the experiment: one dose 100 mg/kg, infected mice
Protocol: Six- to eight-week-old female BALB/c mice were obtained from DILAVE Laboratories[57] (Uruguay). Animals were kept in the animal house (URBE, Facultad de Medicina, UdelaR, Uruguay) with water and food supplied ad libitum. Mouse handling and experiments were carried out in accordance with strict guidelines from the National Committee on Animal Research (CNEA, Uruguay). All procedures involving animals were approved by the Universidad de la República’s Committee on Animal Research (CHEA Protocol Number: 070153-000180-16). BALB/c mice were orally infected with 10 F. hepatica metacercariae per animal. After 1 week post-infection (wpi), mice were intragastrically inoculated with compound 187 (100 mg/kg) or TCZ (100 mg/kg). At 3 wpi mice were bled and sacrificed. Peritoneal exudate cells, spleens, and livers were removed and analyzed. In order to evaluate the severity of the infection, a disease severity score was developed (Table 3S Supporting Information)[57], which was applied in blinded experiments. Alanine aminotransferase (ALT) activity in sera was determined using a commercial kit (Spinreact, Spain) according to the manufacturers’ instructions. PECs from infected and non-infected mice were washed twice with PBS containing 2% FBS and 0.1% sodium azide.

T2 sequence (P60174 whole entry): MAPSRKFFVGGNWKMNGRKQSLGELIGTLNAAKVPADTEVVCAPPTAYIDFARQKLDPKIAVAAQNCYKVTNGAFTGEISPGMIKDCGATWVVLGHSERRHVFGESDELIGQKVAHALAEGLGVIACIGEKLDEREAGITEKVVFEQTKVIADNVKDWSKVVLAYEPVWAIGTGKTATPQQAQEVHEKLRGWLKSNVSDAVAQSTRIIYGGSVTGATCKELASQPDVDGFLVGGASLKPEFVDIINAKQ
T1 sequence (P00939 whole entry): as the sequence (P60174 whole entry) above, with Q20K, S21N, G27T, A119S counted along it

| SMILES | inhibition at 100 µM (rabbit TIM) | toxicity to mammalian cells in words ([1]; herein) | Toxicity mammalian cells [1] | inhibition at 100 µM (human (HsTIM)) | protection of mice from F. hepatica infection (clinical signs, Clinic Score) [2] | transaminase profile at the end of the experiment [2] |
| --- | --- | --- | --- | --- | --- | --- |
| Cc1ccc(-c2nsc(S(=O)(=O)c3ccc(C)cc3)n2)cc1 [Compound 187] | < 20% | non-toxic | NT (when the IC50 vs. the parasite was at least 10 times less than the IC50 vs. the mammalian cells, we considered these compounds as non-toxic (NT)) | < 20% | protected mice from the infection | according to a healthy liver |
| CSc1nc2cc(Cl)c(Oc3cccc(Cl)c3Cl)cc2[nH]1 [Compound 1278, triclabendazole, reference compound] | < 20% |  | NT (when the IC50 vs. the parasite was at least 10 times less than the IC50 vs. the mammalian cells, we considered these compounds as non-toxic (NT)) | < 20% | protected mice from the infection | according to a healthy liver |
